Data reported in patent US10010545B1, “Antibiotic compositions and methods of use” (University of South Florida, priority 2013, dated 2018).

Assays:
Pseudomonas aeruginosa = test: Growth testing against ESKAPE pathogens: Pseudomonas aeruginosa; type: cell-based; design: key: Growth; X: No Growth
Protocol: (§1) Six analogs (FIG. 2) of the ciprofloxacin-N thiolated β-lactam were successfully synthesized. All these compounds were then tested against ESKAPE pathogens for bioactivity. The ESKAPE pathogens are a collection of six deadly superbugs, Enterococcus faecium, Staphylococcus aureus, Klebsiella pneumoniae, Acinetobacter baumannii, Pseudomonas aeruginosa, and Enterobacter species. […] G denotes growth and X denotes no growth in the tables.

Staphylococcus aureus = test: Growth testing against ESKAPE pathogens: Staphylococcus aureus; type: cell-based; design: key to Activity against Staphylococcus aureus (growth observed): Growth; X: No Growth
Protocol: as §1

Klebesiella pneumonia = test: Growth testing against ESKAPE pathogens: Klebesiella pneumonia; type: cell-based, Klebsiella pneumoniae; design: key: Growth; X: No Growth
Protocol: as §1

Acinetobacter baumannii = test: Growth testing against ESKAPE pathogens: Acinetobacter baumannii; type: cell-based; design: key: Growth; X: No Growth
Protocol: as §1

Enterococcus faecium = test: Growth testing against ESKAPE pathogens: Enterococcus faecium; type: cell-based; design: key: Growth; X: No Growth
Protocol: as §1

CCCCCC(=O)N1CCN(c2cc3c(cc2F)c(=O)c(C(=O)OC2C(=O)N(c4ccc(OC)cc4)C2c2ccccc2Cl)cn3C2CC2)CC1 (stereo not drawn) [Lactam 128]
G: Activity against Pseudomonas aeruginosa (growth observed) (Pseudomonas aeruginosa; 1 μg/ml) | Activity against Pseudomonas aeruginosa (growth observed) (Pseudomonas aeruginosa; 2 μg/ml) | Activity against Pseudomonas aeruginosa (growth observed) (Pseudomonas aeruginosa; 3 μg/ml) | Activity against Pseudomonas aeruginosa (growth observed) (Pseudomonas aeruginosa; 4 μg/ml) | Activity against Pseudomonas aeruginosa (growth observed) (Pseudomonas aeruginosa; 5 μg/ml) | Activity against Pseudomonas aeruginosa (growth observed) (Pseudomonas aeruginosa; 6 μg/ml) | Activity against Pseudomonas aeruginosa (growth observed) (Pseudomonas aeruginosa; 7 μg/ml) | Activity against Pseudomonas aeruginosa (growth observed) (Pseudomonas aeruginosa; 8 μg/ml) | Activity against Pseudomonas aeruginosa (growth observed) (Pseudomonas aeruginosa; 9 μg/ml) | Activity against Pseudomonas aeruginosa (growth observed) (Pseudomonas aeruginosa; 10 μg/ml) | Activity against Pseudomonas aeruginosa (growth observed) (Pseudomonas aeruginosa; 25 μg/ml) | Activity against Staphylococcus aureus (growth observed) (Staphylococcus aureus; 1 μg/ml) | Activity against Staphylococcus aureus (growth observed) (Staphylococcus aureus; 2 μg/ml) | Activity against Staphylococcus aureus (growth observed) (Staphylococcus aureus; 3 μg/ml) | Activity against Staphylococcus aureus (growth observed) (Staphylococcus aureus; 4 μg/ml) | Activity against Staphylococcus aureus (growth observed) (Staphylococcus aureus; 5 μg/ml) | Activity against Staphylococcus aureus (growth observed) (Staphylococcus aureus; 6 μg/ml) | Activity against Staphylococcus aureus (growth observed) (Staphylococcus aureus; 7 μg/ml) | Activity against Staphylococcus aureus (growth observed) (Staphylococcus aureus; 8 μg/ml) | Activity against Staphylococcus aureus (growth observed) (Staphylococcus aureus; 9 μg/ml) | Activity against Staphylococcus aureus (growth observed) (Staphylococcus aureus; 10 μg/ml) | Activity against Staphylococcus aureus (growth observed) (Staphylococcus aureus; 25 μg/ml) | Activity against Klebesiella pneumonia (growth observed) (Klebesiella pneumonia; 1 μg/ml) | Activity against Klebesiella pneumonia (growth observed) (Klebesiella pneumonia; 2 μg/ml) | Activity against Klebesiella pneumonia (growth observed) (Klebesiella pneumonia; 3 μg/ml) | Activity against Klebesiella pneumonia (growth observed) (Klebesiella pneumonia; 4 μg/ml) | Activity against Klebesiella pneumonia (growth observed) (Klebesiella pneumonia; 5 μg/ml) | Activity against Klebesiella pneumonia (growth observed) (Klebesiella pneumonia; 6 μg/ml) | Activity against Klebesiella pneumonia (growth observed) (Klebesiella pneumonia; 7 μg/ml) | Activity against Klebesiella pneumonia (growth observed) (Klebesiella pneumonia; 8 μg/ml) | Activity against Klebesiella pneumonia (growth observed) (Klebesiella pneumonia; 9 μg/ml) | Activity against Klebesiella pneumonia (growth observed) (Klebesiella pneumonia; 10 μg/ml) | Activity against Klebesiella pneumonia (growth observed) (Klebesiella pneumonia; 25 μg/ml) | Activity against Acinetobacter baumannii (growth observed) (Acinetobacter baumannii; 1 μg/ml) | Activity against Acinetobacter baumannii (growth observed) (Acinetobacter baumannii; 2 μg/ml) | Activity against Acinetobacter baumannii (growth observed) (Acinetobacter baumannii; 3 μg/ml) | Activity against Acinetobacter baumannii (growth observed) (Acinetobacter baumannii; 4 μg/ml) | Activity against Acinetobacter baumannii (growth observed) (Acinetobacter baumannii; 5 μg/ml) | Activity against Acinetobacter baumannii (growth observed) (Acinetobacter baumannii; 6 μg/ml) | Activity against Acinetobacter baumannii (growth observed) (Acinetobacter baumannii; 7 μg/ml) | Activity against Acinetobacter baumannii (growth observed) (Acinetobacter baumannii; 8 μg/ml) | Activity against Acinetobacter baumannii (growth observed) (Acinetobacter baumannii; 9 μg/ml) | Activity against Acinetobacter baumannii (growth observed) (Acinetobacter baumannii; 10 μg/ml) | Activity against Acinetobacter baumannii (growth observed) (Acinetobacter baumannii; 25 μg/ml) | Activity against Enterococcus faecium (growth observed) (Enterococcus faecium; 1 μg/ml) | Activity against Enterococcus faecium (growth observed) (Enterococcus faecium; 2 μg/ml) | Activity against Enterococcus faecium (growth observed) (Enterococcus faecium; 3 μg/ml) | Activity against Enterococcus faecium (growth observed) (Enterococcus faecium; 4 μg/ml) | Activity against Enterococcus faecium (growth observed) (Enterococcus faecium; 5 μg/ml) | Activity against Enterococcus faecium (growth observed) (Enterococcus faecium; 6 μg/ml) | Activity against Enterococcus faecium (growth observed) (Enterococcus faecium; 7 μg/ml) | Activity against Enterococcus faecium (growth observed) (Enterococcus faecium; 8 μg/ml) | Activity against Enterococcus faecium (growth observed) (Enterococcus faecium; 9 μg/ml) | Activity against Enterococcus faecium (growth observed) (Enterococcus faecium; 10 μg/ml) | Activity against Enterococcus faecium (growth observed) (Enterococcus faecium; 25 μg/ml)

CCCCCC(=O)N1CCN(c2cc3c(cc2F)c(=O)c(C(=O)OC2C(=O)N(SC(C)CC)C2c2ccccc2Cl)cn3C2CC2)CC1 (stereo not drawn) [Lactam 129]
G: Activity against Pseudomonas aeruginosa (growth observed) (Pseudomonas aeruginosa; 1 μg/ml) | Activity against Pseudomonas aeruginosa (growth observed) (Pseudomonas aeruginosa; 2 μg/ml) | Activity against Pseudomonas aeruginosa (growth observed) (Pseudomonas aeruginosa; 3 μg/ml) | Activity against Pseudomonas aeruginosa (growth observed) (Pseudomonas aeruginosa; 4 μg/ml) | Activity against Pseudomonas aeruginosa (growth observed) (Pseudomonas aeruginosa; 5 μg/ml) | Activity against Pseudomonas aeruginosa (growth observed) (Pseudomonas aeruginosa; 6 μg/ml) | Activity against Pseudomonas aeruginosa (growth observed) (Pseudomonas aeruginosa; 7 μg/ml) | Activity against Pseudomonas aeruginosa (growth observed) (Pseudomonas aeruginosa; 8 μg/ml) | Activity against Pseudomonas aeruginosa (growth observed) (Pseudomonas aeruginosa; 9 μg/ml) | Activity against Pseudomonas aeruginosa (growth observed) (Pseudomonas aeruginosa; 10 μg/ml) | Activity against Pseudomonas aeruginosa (growth observed) (Pseudomonas aeruginosa; 25 μg/ml) | Activity against Staphylococcus aureus (growth observed) (Staphylococcus aureus; 1 μg/ml) | Activity against Staphylococcus aureus (growth observed) (Staphylococcus aureus; 2 μg/ml) | Activity against Staphylococcus aureus (growth observed) (Staphylococcus aureus; 3 μg/ml) | Activity against Staphylococcus aureus (growth observed) (Staphylococcus aureus; 4 μg/ml) | Activity against Staphylococcus aureus (growth observed) (Staphylococcus aureus; 5 μg/ml) | Activity against Staphylococcus aureus (growth observed) (Staphylococcus aureus; 6 μg/ml) | Activity against Staphylococcus aureus (growth observed) (Staphylococcus aureus; 7 μg/ml) | Activity against Staphylococcus aureus (growth observed) (Staphylococcus aureus; 8 μg/ml) | Activity against Staphylococcus aureus (growth observed) (Staphylococcus aureus; 9 μg/ml) | Activity against Staphylococcus aureus (growth observed) (Staphylococcus aureus; 10 μg/ml) | Activity against Staphylococcus aureus (growth observed) (Staphylococcus aureus; 25 μg/ml) | Activity against Klebesiella pneumonia (growth observed) (Klebesiella pneumonia; 1 μg/ml) | Activity against Klebesiella pneumonia (growth observed) (Klebesiella pneumonia; 2 μg/ml) | Activity against Klebesiella pneumonia (growth observed) (Klebesiella pneumonia; 3 μg/ml) | Activity against Klebesiella pneumonia (growth observed) (Klebesiella pneumonia; 4 μg/ml) | Activity against Klebesiella pneumonia (growth observed) (Klebesiella pneumonia; 5 μg/ml) | Activity against Klebesiella pneumonia (growth observed) (Klebesiella pneumonia; 6 μg/ml) | Activity against Klebesiella pneumonia (growth observed) (Klebesiella pneumonia; 7 μg/ml) | Activity against Klebesiella pneumonia (growth observed) (Klebesiella pneumonia; 8 μg/ml) | Activity against Klebesiella pneumonia (growth observed) (Klebesiella pneumonia; 9 μg/ml) | Activity against Klebesiella pneumonia (growth observed) (Klebesiella pneumonia; 10 μg/ml) | Activity against Klebesiella pneumonia (growth observed) (Klebesiella pneumonia; 25 μg/ml) | Activity against Acinetobacter baumannii (growth observed) (Acinetobacter baumannii; 1 μg/ml) | Activity against Acinetobacter baumannii (growth observed) (Acinetobacter baumannii; 2 μg/ml) | Activity against Acinetobacter baumannii (growth observed) (Acinetobacter baumannii; 3 μg/ml) | Activity against Acinetobacter baumannii (growth observed) (Acinetobacter baumannii; 4 μg/ml) | Activity against Acinetobacter baumannii (growth observed) (Acinetobacter baumannii; 5 μg/ml) | Activity against Acinetobacter baumannii (growth observed) (Acinetobacter baumannii; 6 μg/ml) | Activity against Acinetobacter baumannii (growth observed) (Acinetobacter baumannii; 7 μg/ml) | Activity against Acinetobacter baumannii (growth observed) (Acinetobacter baumannii; 8 μg/ml) | Activity against Acinetobacter baumannii (growth observed) (Acinetobacter baumannii; 9 μg/ml) | Activity against Acinetobacter baumannii (growth observed) (Acinetobacter baumannii; 10 μg/ml) | Activity against Acinetobacter baumannii (growth observed) (Acinetobacter baumannii; 25 μg/ml) | Activity against Enterococcus faecium (growth observed) (Enterococcus faecium; 1 μg/ml) | Activity against Enterococcus faecium (growth observed) (Enterococcus faecium; 2 μg/ml) | Activity against Enterococcus faecium (growth observed) (Enterococcus faecium; 3 μg/ml) | Activity against Enterococcus faecium (growth observed) (Enterococcus faecium; 4 μg/ml) | Activity against Enterococcus faecium (growth observed) (Enterococcus faecium; 5 μg/ml) | Activity against Enterococcus faecium (growth observed) (Enterococcus faecium; 6 μg/ml) | Activity against Enterococcus faecium (growth observed) (Enterococcus faecium; 7 μg/ml) | Activity against Enterococcus faecium (growth observed) (Enterococcus faecium; 8 μg/ml) | Activity against Enterococcus faecium (growth observed) (Enterococcus faecium; 9 μg/ml) | Activity against Enterococcus faecium (growth observed) (Enterococcus faecium; 10 μg/ml) | Activity against Enterococcus faecium (growth observed) (Enterococcus faecium; 25 μg/ml)

CCCCCC(=O)N1CCN(c2cc3c(cc2F)c(=O)c(C(=O)OC2C(=O)N(SC)C2c2ccccc2)cn3C2CC2)CC1 (stereo not drawn) [Lactam 126]
G: Activity against Pseudomonas aeruginosa (growth observed) (Pseudomonas aeruginosa; 1 μg/ml) | Activity against Pseudomonas aeruginosa (growth observed) (Pseudomonas aeruginosa; 2 μg/ml) | Activity against Pseudomonas aeruginosa (growth observed) (Pseudomonas aeruginosa; 3 μg/ml) | Activity against Pseudomonas aeruginosa (growth observed) (Pseudomonas aeruginosa; 4 μg/ml) | Activity against Pseudomonas aeruginosa (growth observed) (Pseudomonas aeruginosa; 5 μg/ml) | Activity against Pseudomonas aeruginosa (growth observed) (Pseudomonas aeruginosa; 6 μg/ml) | Activity against Pseudomonas aeruginosa (growth observed) (Pseudomonas aeruginosa; 7 μg/ml) | Activity against Pseudomonas aeruginosa (growth observed) (Pseudomonas aeruginosa; 8 μg/ml) | Activity against Pseudomonas aeruginosa (growth observed) (Pseudomonas aeruginosa; 9 μg/ml) | Activity against Pseudomonas aeruginosa (growth observed) (Pseudomonas aeruginosa; 10 μg/ml) | Activity against Pseudomonas aeruginosa (growth observed) (Pseudomonas aeruginosa; 25 μg/ml) | Activity against Staphylococcus aureus (growth observed) (Staphylococcus aureus; 1 μg/ml) | Activity against Staphylococcus aureus (growth observed) (Staphylococcus aureus; 2 μg/ml) | Activity against Staphylococcus aureus (growth observed) (Staphylococcus aureus; 3 μg/ml) | Activity against Staphylococcus aureus (growth observed) (Staphylococcus aureus; 4 μg/ml) | Activity against Staphylococcus aureus (growth observed) (Staphylococcus aureus; 5 μg/ml) | Activity against Staphylococcus aureus (growth observed) (Staphylococcus aureus; 6 μg/ml) | Activity against Staphylococcus aureus (growth observed) (Staphylococcus aureus; 7 μg/ml) | Activity against Staphylococcus aureus (growth observed) (Staphylococcus aureus; 8 μg/ml) | Activity against Staphylococcus aureus (growth observed) (Staphylococcus aureus; 9 μg/ml) | Activity against Staphylococcus aureus (growth observed) (Staphylococcus aureus; 10 μg/ml) | Activity against Staphylococcus aureus (growth observed) (Staphylococcus aureus; 25 μg/ml) | Activity against Klebesiella pneumonia (growth observed) (Klebesiella pneumonia; 1 μg/ml) | Activity against Klebesiella pneumonia (growth observed) (Klebesiella pneumonia; 2 μg/ml) | Activity against Klebesiella pneumonia (growth observed) (Klebesiella pneumonia; 3 μg/ml) | Activity against Klebesiella pneumonia (growth observed) (Klebesiella pneumonia; 4 μg/ml) | Activity against Klebesiella pneumonia (growth observed) (Klebesiella pneumonia; 5 μg/ml) | Activity against Klebesiella pneumonia (growth observed) (Klebesiella pneumonia; 6 μg/ml) | Activity against Klebesiella pneumonia (growth observed) (Klebesiella pneumonia; 7 μg/ml) | Activity against Klebesiella pneumonia (growth observed) (Klebesiella pneumonia; 8 μg/ml) | Activity against Klebesiella pneumonia (growth observed) (Klebesiella pneumonia; 9 μg/ml) | Activity against Klebesiella pneumonia (growth observed) (Klebesiella pneumonia; 10 μg/ml) | Activity against Klebesiella pneumonia (growth observed) (Klebesiella pneumonia; 25 μg/ml) | Activity against Acinetobacter baumannii (growth observed) (Acinetobacter baumannii; 1 μg/ml) | Activity against Acinetobacter baumannii (growth observed) (Acinetobacter baumannii; 2 μg/ml) | Activity against Acinetobacter baumannii (growth observed) (Acinetobacter baumannii; 3 μg/ml) | Activity against Acinetobacter baumannii (growth observed) (Acinetobacter baumannii; 4 μg/ml) | Activity against Acinetobacter baumannii (growth observed) (Acinetobacter baumannii; 5 μg/ml) | Activity against Acinetobacter baumannii (growth observed) (Acinetobacter baumannii; 6 μg/ml) | Activity against Acinetobacter baumannii (growth observed) (Acinetobacter baumannii; 7 μg/ml) | Activity against Acinetobacter baumannii (growth observed) (Acinetobacter baumannii; 8 μg/ml) | Activity against Acinetobacter baumannii (growth observed) (Acinetobacter baumannii; 9 μg/ml) | Activity against Acinetobacter baumannii (growth observed) (Acinetobacter baumannii; 10 μg/ml) | Activity against Acinetobacter baumannii (growth observed) (Acinetobacter baumannii; 25 μg/ml) | Activity against Enterococcus faecium (growth observed) (Enterococcus faecium; 1 μg/ml) | Activity against Enterococcus faecium (growth observed) (Enterococcus faecium; 2 μg/ml) | Activity against Enterococcus faecium (growth observed) (Enterococcus faecium; 3 μg/ml) | Activity against Enterococcus faecium (growth observed) (Enterococcus faecium; 4 μg/ml) | Activity against Enterococcus faecium (growth observed) (Enterococcus faecium; 5 μg/ml) | Activity against Enterococcus faecium (growth observed) (Enterococcus faecium; 6 μg/ml) | Activity against Enterococcus faecium (growth observed) (Enterococcus faecium; 7 μg/ml) | Activity against Enterococcus faecium (growth observed) (Enterococcus faecium; 8 μg/ml) | Activity against Enterococcus faecium (growth observed) (Enterococcus faecium; 9 μg/ml) | Activity against Enterococcus faecium (growth observed) (Enterococcus faecium; 10 μg/ml) | Activity against Enterococcus faecium (growth observed) (Enterococcus faecium; 25 μg/ml)
